This note sets out measurements from patent publication US10550127B1, “Indanylaminoazadihydrobenzofuranylacetic acids, pharmaceutical compositions for the treatment of diabetes” (Boehringer Ingelheim International GmbH, priority 2017, dated 2020).

One data set deals with human GPR40 receptor (Homo sapiens (Human), UniProt O14842). The data set can be described thus: IP1 accumulation measurements using the IPOne assay system. The format is cell-based. The note with it: 1321N1 cells stably expressing human GPR40, 1 h stimulation. The protocol:
IP1 accumulation measurements using the IPOne assay system—1321N1 cells stably expressing human GPR40 receptor (Euroscreen, Belgium) are seeded 24 h before the assay in white 384-well plates in culture medium containing 10% FCS, 1% Na-Pyruvate and 400 μg/mL G418. IP1 is assayed according to the manufacturer's description (Cisbio Bioassays, France). In brief, the assay is started by substitution of the culture medium by stimulation buffer (Hepes 10 mM, CaCl2) 1 mM, MgCl2 0.5 mM, KCl 4.2 mM, NaCl 146 mM, glucose 5.5 mM and LiCl 50 mM, pH 7.4). Cells are stimulated for 1 h at 37° C., 5% CO2 by addition of the compounds that are diluted in stimulation buffer containing LiCl. Assays are stopped by adding HTRF-conjugates (IP1-d2 and Anti-IP1 cryptate Tb) and lysis buffer, provided by the manufacturer. After an incubation time of 1 h at room temperature plates are measured using an EnVision™, Perkin Elmer. The obtained fluorescence ratios at 665/615 […] are then used to calculate the pEC50 values using Assay Explorer 3.3 Software (Accelrys, Inc.) by interpolation using an IP1 reference curve and subsequent sigmoidal curve fitting allowing for a variable hill slope.

The next data set is described as follows: Aqueous solubility. The format is physicochemical. The following applies: aqueous buffer, kinetic from dmso stock, buffer pH 2.2, 24 h shaking, 2.5% DMSO. The protocol: The aqueous solubility of the compounds of the invention is determined by comparing the amount dissolved in buffer to the amount in an acetonitrile/water (1/1) solution. Starting from a 10 mM DMSO stock solution aliquots are diluted with acetonitrile/water (1/1) or buffer, respectively. After 24 h of shaking, the solutions are filtrated and analyzed by LC-UV. The amount dissolved in buffer is compared to the amount in the acetonitrile solution.
Solubility is usually being measured from 0.001 to 0.125 mg/mL at a DMSO concentration of 2.5%. If more than 90% of the compound is dissolved in buffer, the value is marked with “>”.

The target of data set [1] is cytochrome P450 2C8-isoenzyme (Homo sapiens (Human), UniProt P10632). The data set can be described thus: Inhibition of CYP-2C8 (amodiaquine deethylation, human liver microsomes). The note with it: amodiaquine 1 μM, 37° C. The format is in vitro ADME. On the procedure:
(§1) All assays are carried out on a robotic system in 96 well plates. The final incubation volume contains TRIS buffer (0.1 M), MgCl2 (5 mM), human liver microsomes (0.05 mg/mL), amodiaquine (1 μM) and the test compound at five different concentrations or no compound (high control) in duplicate (e.g. highest concentration 10-50 μM with subsequent serial 1:4 dilutions). Following a short preincubation period, reactions are started with the cofactor (NADPH, 1 mM) and stopped by cooling the incubation down to 8° C. and subsequently by addition of one volume of acetonitrile. An internal standard solution—the stable isotope d5-desethylamodiaquine—is added after quenching of incubations. Peak area analyte (=metabolite formed) and internal standard is determined by LC-MS/MS. The resulting peak area ratio analyte to internal standard in these incubations is compared to a control activity containing no test compound. Within each of the assay runs, the IC50 of a positive control inhibitor (Montelukast) is determined. Experimental IC50 values are calculated by least square regression according to the following equation: % control activity=(100% control activity/(1+(I/IC50)S))−B with I=inhibitor concentration; S=slope factor; B=background activity (lower plateau of the inhibition curve)
If the inhibition of the reaction is already >50% at the lowest concentration of the test compound, the IC50 is assigned “<lowest concentration tested” (usually <0.4 μM). If the inhibition of the reaction is still <50% at the highest concentration of the test compound, the IC50 is assigned “> highest concentration tested” (usually >50 μM).

Data set [2] concerns the target cytochrome P450 2C9-isoenzyme (Homo sapiens (Human), UniProt P11712). As to the kind of experiment: Inhibition of CYP-2C9 (diclofenac hydroxylation, human liver microsomes). The format is in vitro ADME. The note with it: diclofenac 10 μM, 37° C. The protocol:
as §1, with “(0.1” for “(0.05”, “diclofenac (10” for “amodiaquine (1”, “(e.g.,” for “(e.g.”, “^13C6-hydroxydiclofenac—is” for “d5-desethylamodiaquine—is”, “(sulfaphenazole)” for “(Montelukast)”, “curve) […]” for “curve)”
On the technique in general: Liver microsomes are vesicles of endoplasmic reticulum, rich in cytochrome P450 enzymes.

In brackets after ≈: the same amount, converted by molar mass.

cytochrome P450 2C8-isoenzyme, sequence (P10632 whole entry): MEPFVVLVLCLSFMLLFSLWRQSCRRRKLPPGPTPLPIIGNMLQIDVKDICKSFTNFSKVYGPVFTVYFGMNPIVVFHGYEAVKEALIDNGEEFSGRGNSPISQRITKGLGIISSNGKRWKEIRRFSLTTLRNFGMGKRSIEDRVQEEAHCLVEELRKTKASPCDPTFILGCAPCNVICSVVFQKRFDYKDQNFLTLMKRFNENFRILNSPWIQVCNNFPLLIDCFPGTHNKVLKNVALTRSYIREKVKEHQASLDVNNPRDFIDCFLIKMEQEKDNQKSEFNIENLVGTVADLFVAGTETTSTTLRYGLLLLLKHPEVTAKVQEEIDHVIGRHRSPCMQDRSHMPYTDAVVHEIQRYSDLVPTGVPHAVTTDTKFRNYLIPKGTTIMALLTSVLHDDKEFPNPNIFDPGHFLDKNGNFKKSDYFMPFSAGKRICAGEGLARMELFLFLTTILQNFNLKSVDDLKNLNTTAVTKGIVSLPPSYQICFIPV
cytochrome P450 2C9-isoenzyme, sequence (P11712 whole entry): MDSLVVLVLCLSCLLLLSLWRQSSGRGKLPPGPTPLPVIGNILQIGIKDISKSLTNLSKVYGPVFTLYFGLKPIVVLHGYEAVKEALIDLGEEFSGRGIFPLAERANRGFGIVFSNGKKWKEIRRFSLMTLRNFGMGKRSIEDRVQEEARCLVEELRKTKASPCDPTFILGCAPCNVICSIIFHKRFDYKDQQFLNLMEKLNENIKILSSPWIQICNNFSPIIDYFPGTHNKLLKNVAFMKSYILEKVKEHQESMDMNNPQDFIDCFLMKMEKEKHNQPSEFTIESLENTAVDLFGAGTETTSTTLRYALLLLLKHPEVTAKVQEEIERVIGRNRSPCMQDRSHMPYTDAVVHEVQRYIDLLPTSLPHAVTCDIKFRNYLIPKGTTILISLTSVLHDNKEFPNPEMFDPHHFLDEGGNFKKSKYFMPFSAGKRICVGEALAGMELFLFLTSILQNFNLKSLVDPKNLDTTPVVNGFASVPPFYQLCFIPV
human GPR40 receptor, sequence (O14842 whole entry): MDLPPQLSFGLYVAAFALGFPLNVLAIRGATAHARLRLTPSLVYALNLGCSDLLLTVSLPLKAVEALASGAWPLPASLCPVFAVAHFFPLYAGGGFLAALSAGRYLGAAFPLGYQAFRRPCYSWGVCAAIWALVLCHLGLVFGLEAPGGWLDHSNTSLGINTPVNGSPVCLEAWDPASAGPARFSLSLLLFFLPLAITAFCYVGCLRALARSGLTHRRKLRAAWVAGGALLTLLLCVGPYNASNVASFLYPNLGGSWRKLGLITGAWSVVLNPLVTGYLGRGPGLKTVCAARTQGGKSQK

On to `Cc1cc(OCCC(C)(C)O)cc(C)c1-c1ccc(F)c2c1CC[C@H]2Nc1cc2c(cn1)[C@H](CC(=O)O)CO2` [Example 1, ((S)-6-{(R)-7-Fluoro-4-[4-(3-hydroxy-3-methyl-butoxy)-2,6-dimethyl-phenyl]-indan-1-ylamino}-2,3-dihydro-furo[3,2-c]pyridin-3-yl)-acetic Acid], for which the EC50 – broadly, the concentration that produces a half-maximal response – at human GPR40 receptor is 0.015 µM. The solubility (as a rule, how much of the substance goes into solution per volume) at 24 h in “Aqueous solubility” was more than 94 µg/mL. The half-inhibitory concentration (IC50) (in general, the concentration needed to halve the response being measured) was 30 µM in data set [1] and more than 50 µM in data set [2].

As to `Cc1cc(-c2nnn(C)n2)cc(C)c1-c1ccc(F)c2c1CC[C@H]2Nc1cc2c(cn1)[C@H](CC(=O)O)CO2` [Example 5, ((S)-6-{(R)-4-[2,6-Dimethyl-4-(2-methyl-2H-tetrazol-5-yl)-phenyl]-7-fluoro-indan-1-ylamino}-2,3-dihydro-furo[3,2-c]pyridin-3-yl)-acetic Acid], on human GPR40 receptor, a half-maximal effect (EC50) was put at 0.006 µM. Moreover, the concentration in solution in “Aqueous solubility” (solubility at 24 h) was 47 µg/mL (≈ 91.3 µM). Besides, the values for the half-inhibitory concentration (IC50) in data set [1] and in data set [2] were 35 µM and more than 50 µM, respectively.
